pIC50: −log10 of the molar value. Structures can show the parent of a compound that is named as a salt. Where two headings read alike, the source gives them in different places. One block for each molecule: values may come before it.
Target: T1, human p38 kinase alpha (Homo sapiens, UniProt Q16539)
T1 construct: GST (N, cleaved yes); made in house; host or cells: E. coli DH10B
Experiment: p38 kinase in vitro assay, phosphorylation of biotinylated PHAS-I with 32P-ATP
Format: biochemical
Conditions: for P38 alpha kinase % inhib @ conc. (uM) / P38 alpha kinase % inhib @ conc. / inhibition at 1 µM: @ 1.0 uM; for inhibition at 1 µM: read-out: P38 alpha kinase % inhib @ conc.

[1] = in vitro P38-alpha kinase inhibition, read-out: P38 alpha kinase IC50
[2] = in vitro P38-alpha kinase, read-out: P38 alpha kinase IC50

T1 sequence (Q16539 whole entry): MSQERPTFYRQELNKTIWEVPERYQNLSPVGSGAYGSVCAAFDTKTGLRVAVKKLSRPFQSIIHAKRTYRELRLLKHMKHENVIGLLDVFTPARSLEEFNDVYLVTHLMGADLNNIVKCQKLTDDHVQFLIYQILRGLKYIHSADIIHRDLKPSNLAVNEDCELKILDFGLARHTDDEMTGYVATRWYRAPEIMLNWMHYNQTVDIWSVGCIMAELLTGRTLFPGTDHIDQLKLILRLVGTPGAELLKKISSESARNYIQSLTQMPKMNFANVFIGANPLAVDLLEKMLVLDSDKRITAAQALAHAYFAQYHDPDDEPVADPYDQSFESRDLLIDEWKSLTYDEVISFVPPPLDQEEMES

- pIC50 (Table 8, 1% DMSO, read-out: p38α Kinase Assay IC50): 6.54
SMILES: C#CCn1nc(N2CCNCC2)c(-c2ccncc2)c1-c1ccc(Cl)cc1 [Example A-318, 1-[5-(4-chlorophenyl)-4-(4-pyridinyl)-1-(2-propynyl)-1H-pyrazol-3-yl]piperazine, trihydrochloride monohydrate]

- P38 alpha kinase % inhib @ conc. (uM): 70.0% @
SMILES: CCCNC(=O)NCCc1[nH]nc(-c2ccc(F)cc2)c1-c1ccncc1 [Example B-1041]

- pIC50 [1]: 4.49
SMILES: Cc1cccc(C)c1NC(=O)NC(Cc1ccccc1)c1[nH]nc(-c2ccc(F)cc2)c1-c1ccncc1 (stereo not shown) [Example B-0733]

- pIC50 [1]: 6.57
SMILES: O=C(NCCc1[nH]nc(-c2ccc(F)cc2)c1-c1ccncc1)c1cccs1 [Example B-1156]

- pIC50 [2]: 7.43
SMILES: O=C(NCCCc1[nH]nc(-c2ccc(F)cc2)c1-c1ccncc1)c1cc(F)ccc1F [Example B-1349]

- pIC50 [1]: 6.22
SMILES: COc1ccc(OC)c(S(=O)(=O)NC(C)c2[nH]nc(-c3ccc(F)cc3)c2-c2ccncc2)c1 (stereo not shown) [Example B-0634]

- P38 alpha kinase % inhib @ conc.: 82.0% @
SMILES: O=C(NCCCc1[nH]nc(-c2ccc(F)cc2)c1-c1ccncc1)NCc1ccccc1 [Example B-1208]

- pIC50 [1]: 5.88
SMILES: CCCCOc1ccc(S(=O)(=O)NC(C)c2[nH]nc(-c3ccc(F)cc3)c2-c2ccncc2)cc1 (stereo not shown) [Example B-0456]

- P38 alpha kinase % inhib @ conc. (uM): 74.0% @
SMILES: CC(=O)OC(C)(C)C(=O)NCCCc1[nH]nc(-c2ccc(F)cc2)c1-c1ccncc1 [Example B-1163]

- pIC50 [1]: > 7.00
SMILES: CC(NS(=O)(=O)c1ccc(Cl)cc1)c1[nH]nc(-c2ccc(F)cc2)c1-c1ccncc1 (stereo not shown) [Example B-0610]

- pIC50 [2]: 7.10
SMILES: O=C(O)c1ccccc1S(=O)(=O)NCCCc1[nH]nc(-c2ccc(F)cc2)c1-c1ccncc1 [Example B-1242]

- pIC50 [1]: 7.16
SMILES: CC(NS(=O)(=O)c1ccc(F)c(Cl)c1)c1[nH]nc(-c2ccc(F)cc2)c1-c1ccncc1 (stereo not shown) [Example B-0643]

- pIC50 [2]: 7.17
SMILES: O=C(NCCCc1[nH]nc(-c2ccc(F)cc2)c1-c1ccncc1)c1ccccc1F [Example B-1351]

- pIC50 [1]: 5.91
SMILES: CC(NC(=O)c1ccc(F)cc1)c1[nH]nc(-c2ccc(F)cc2)c1-c1ccncc1 (stereo not shown) [Example B-0533]

- pIC50 [1]: 6.43
SMILES: O=S(=O)(NC(Cc1ccccc1)c1[nH]nc(-c2ccc(F)cc2)c1-c1ccncc1)c1ccccc1 (stereo not shown) [Example B-0753]

- P38 alpha kinase % inhib @ conc. (uM): 67.0% @
SMILES: CCN(CC)C(=O)NCCc1[nH]nc(-c2ccc(F)cc2)c1-c1ccncc1 [Example B-1048]

- pIC50 [1]: 6.44
SMILES: CC(NS(=O)(=O)c1ccccc1Cl)c1[nH]nc(-c2ccc(F)cc2)c1-c1ccncc1 (stereo not shown) [Example B-0640]

- P38 alpha kinase % inhib @ conc. (uM): 67.0% @
SMILES: CCNC(=O)NCCc1[nH]nc(-c2ccc(F)cc2)c1-c1ccncc1 [Example B-1049]

- pIC50 [2]: > 7.00
SMILES: O=C(OCc1ccccc1)N1CCC(c2[nH]nc(-c3ccc(F)cc3)c2-c2ccncc2)CC1 [Example B-1428]

- pIC50 [1]: 6.08
SMILES: CC(NS(=O)(=O)c1cccc2cnccc12)c1[nH]nc(-c2ccc(F)cc2)c1-c1ccncc1 (stereo not shown) [Example B-0667]

- pIC50 [1]: 5.16
SMILES: CC(NC(=O)Nc1ccccc1O)c1[nH]nc(-c2ccc(F)cc2)c1-c1ccncc1 (stereo not shown) [Example B-0587]

- pIC50 [1]: 5.92
SMILES: CCNC(=O)NC(Cc1ccccc1)c1[nH]nc(-c2ccc(F)cc2)c1-c1ccncc1 (stereo not shown) [Example B-0743]

- P38 alpha kinase % inhib @ conc.: 82.0% @
SMILES: COc1ccc(NC(=O)NCCCc2[nH]nc(-c3ccc(F)cc3)c2-c2ccncc2)cc1 [Example B-1224]

- inhibition at 1 µM: 80%
SMILES: CC(=O)OCC(=O)NCc1[nH]nc(-c2ccc(F)cc2)c1-c1ccncc1 [Example B-0004]

- pIC50 [2]: 7.15
SMILES: O=S(=O)(NCCCc1[nH]nc(-c2ccc(F)cc2)c1-c1ccncc1)c1c(Cl)cccc1Cl [Example B-1258]

- pIC50 [1]: > 7.00
SMILES: O=S(=O)(NCCc1[nH]nc(-c2ccc(F)cc2)c1-c1ccncc1)c1cccc2cccnc12 [Example B-1071]

- P38 alpha kinase % inhib @ conc. (uM): 70.0% @
SMILES: O=C(NCCCc1[nH]nc(-c2ccc(F)cc2)c1-c1ccncc1)c1cccc(Br)c1 [Example B-1167]

- inhibition at 1 µM: 70%
SMILES: COc1ccc(OC)c(CC(=O)NCc2[nH]nc(-c3ccc(F)cc3)c2-c2ccncc2)c1 [Example B-0013]

- P38 alpha kinase IC50, uM or % inhib @ conc. (uM): % inhib (@ 10.0 uM): 79.0% @
SMILES: Cc1c(-c2ccncc2)c(-c2ccc(F)cc2)nn1CC(=O)Nc1cc(C(F)(F)F)cc(C(F)(F)F)c1 [Example B-2425]

- pIC50 [2]: 5.05
SMILES: COCCNC(=O)Cn1nc(-c2ccc(F)cc2)c(-c2ccncc2)c1C [Example B-2292]

- pIC50 [2]: 7.85
SMILES: CC(C)(C)C(=O)N1CCC(c2[nH]nc(-c3ccc(F)cc3)c2-c2ccncc2)CC1 [Example B-1421]

- pIC50 [1]: 6.00
SMILES: CCCNC(=O)NC(Cc1ccccc1)c1[nH]nc(-c2ccc(F)cc2)c1-c1ccncc1 (stereo not shown) [Example B-0735]

- P38 alpha kinase IC50, uM or % inhib @ conc. (uM): % inhib (@ 100.0 uM): 58% @
SMILES: Cc1c(-c2ccncc2)c(-c2ccc(F)cc2)nn1CC(=O)N(CCC#N)CC1CCCO1 (stereo not shown) [Example B-2404]

- pIC50 [2]: 5.14
SMILES: CCNC(=O)Cn1nc(-c2ccc(F)cc2)c(-c2ccncc2)c1C [Example B-2311]

- pIC50 [1]: 5.36
SMILES: O=C(NC(Cc1ccccc1)c1[nH]nc(-c2ccc(F)cc2)c1-c1ccncc1)C1CCCN1 (stereo not shown) [Example B-0749]

- pIC50 [1]: 7.03
SMILES: O=S(=O)(NCCc1[nH]nc(-c2ccc(F)cc2)c1-c1ccncc1)c1ccc2ccccc2c1 [Example B-1103]

- pIC50 [2]: 7.05
SMILES: CC(C)OC(=O)N1CCC(c2[nH]nc(-c3ccc(F)cc3)c2-c2ccncc2)CC1 [Example B-1425]

- pIC50 [2]: 6.57
SMILES: O=C(NCCCc1[nH]nc(-c2ccc(F)cc2)c1-c1ccncc1)c1cc2ccccc2s1 [Example B-1325]

- pIC50 [2]: 6.92
SMILES: O=S(=O)(NCCCc1[nH]nc(-c2ccc(F)cc2)c1-c1ccncc1)c1ccc(Cl)s1 [Example B-1278]

- pIC50 [1]: 6.59
SMILES: Cc1ccccc1S(=O)(=O)NC(C)c1[nH]nc(-c2ccc(F)cc2)c1-c1ccncc1 (stereo not shown) [Example B-0646]

- pIC50 [1]: 7.30
SMILES: O=S(=O)(NCCc1[nH]nc(-c2ccc(F)cc2)c1-c1ccncc1)c1ccc(C(F)(F)F)cc1 [Example B-1087]

- pIC50 [1]: 6.04
SMILES: O=C(NC(Cc1ccccc1)c1[nH]nc(-c2ccc(F)cc2)c1-c1ccncc1)C1CCCN1 (stereo not shown) [Example B-0750]

- pIC50 [1]: 5.77
SMILES: C=CCNC(=O)NC(C)c1[nH]nc(-c2ccc(F)cc2)c1-c1ccncc1 (stereo not shown) [Example B-0589]

- pIC50 [1]: 6.04
SMILES: O=C(NC(Cc1ccccc1)c1[nH]nc(-c2ccc(F)cc2)c1-c1ccncc1)c1ccccc1 (stereo not shown) [Example B-0851]

- pIC50 [1]: > 7.00
SMILES: Cc1cccc(S(=O)(=O)NCCc2[nH]nc(-c3ccc(F)cc3)c2-c2ccncc2)c1 [Example B-1089]

- P38 alpha kinase % inhib @ conc.: 92.0% @
SMILES: CCCS(=O)(=O)NCCCc1[nH]nc(-c2ccc(F)cc2)c1-c1ccncc1 [Example B-1198]

- pIC50 [2]: > 7.00
SMILES: O=C(c1cccc(F)c1F)N1CCC(c2[nH]nc(-c3ccc(F)cc3)c2-c2ccncc2)CC1 [Example B-1411]

- P38 alpha kinase % inhib @ conc.: 68.0% @
SMILES: Cc1ccc(S(=O)(=O)NCCCc2[nH]nc(-c3ccc(F)cc3)c2-c2ccncc2)cc1 [Example B-1204]

- pIC50 [1]: 5.97
SMILES: CC(NC(=O)c1ccccc1C(F)(F)F)c1[nH]nc(-c2ccc(F)cc2)c1-c1ccncc1 (stereo not shown) [Example B-0545]

- inhibition at 1 µM: 91%
SMILES: O=C(NCc1[nH]nc(-c2ccc(F)cc2)c1-c1ccncc1)c1cc2ccccc2s1 [Example B-0029]

- pIC50 [1]: 6.42
SMILES: CC(NC(=O)c1ccc(F)c(F)c1)c1[nH]nc(-c2ccc(F)cc2)c1-c1ccncc1 (stereo not shown) [Example B-0678]

- pIC50 [2]: 5.80
SMILES: O=S(=O)(c1ccc(F)cc1F)N1CCC(c2[nH]nc(-c3ccc(F)cc3)c2-c2ccncc2)CC1 [Example B-1454]

- P38 alpha kinase % inhib @ conc. (uM): 90.0% @
SMILES: CCOC(=O)c1ccc(NC(=O)NCCc2[nH]nc(-c3ccc(F)cc3)c2-c2ccncc2)cc1 [Example B-0949]

- pIC50 [1]: 6.06
SMILES: CC(NS(=O)(=O)c1cn(C)cn1)c1[nH]nc(-c2ccc(F)cc2)c1-c1ccncc1 (stereo not shown) [Example B-0663]

- pIC50 [2]: > 7.00
SMILES: Cc1cccc(S(=O)(=O)NCCCc2[nH]nc(-c3ccc(F)cc3)c2-c2ccncc2)c1 [Example B-1266]

- pIC50 [1]: 5.68
SMILES: O=S(=O)(NC(Cc1ccccc1)c1[nH]nc(-c2ccc(F)cc2)c1-c1ccncc1)c1ccccc1 (stereo not shown) [Example B-0708]

- pIC50 [2]: 7.40
SMILES: CC(=O)Nc1nc(C)c(S(=O)(=O)NCCCc2[nH]nc(-c3ccc(F)cc3)c2-c2ccncc2)s1 [Example B-1235]

- pIC50 (read-out: P38 alpha kinase IC50): 7.11
SMILES: COCC(=O)N[C@H]1CC[C@@H](C2=NN=C(c3ccc(Cl)cc3)C2c2ccncc2)CC1 (stereo partly drawn) [Example C-96, 5-cis-[4-N-(METHOXYACETYL)AMINOCYCLOHEXYL]-4-(4-PYRIDYL)-3-(4-CHLOROPHENYL)PYRAZOLE]

- pIC50 [1]: > 7.00
SMILES: Cc1ccc(F)cc1S(=O)(=O)NCCc1[nH]nc(-c2ccc(F)cc2)c1-c1ccncc1 [Example B-1079]

- pIC50 [1]: > 7.00
SMILES: Cc1ccccc1S(=O)(=O)NCCc1[nH]nc(-c2ccc(F)cc2)c1-c1ccncc1 [Example B-1097]

- pIC50 [2]: 6.82
SMILES: O=C(O)c1ccccc1S(=O)(=O)NCc1[nH]nc(-c2ccc(F)cc2)c1-c1ccncc1 [Example B-0228]

- pIC50 [2]: 6.92
SMILES: O=C(c1cc(F)ccc1F)N1CCC(c2[nH]nc(-c3ccc(F)cc3)c2-c2ccncc2)CC1 [Example B-1402]

- pIC50 [1]: 5.44
SMILES: CC(NC(=O)c1ccc(I)cc1)c1[nH]nc(-c2ccc(F)cc2)c1-c1ccncc1 (stereo not shown) [Example B-0540]

- pIC50 [2]: 6.10
SMILES: COc1ccc(CNC(=O)Cn2nc(-c3ccc(F)cc3)c(-c3ccncc3)c2C)c(OC)c1 [Example B-2278]

- pIC50 [1]: 5.92
SMILES: CCOC(=O)NC(Cc1ccccc1)c1[nH]nc(-c2ccc(F)cc2)c1-c1ccncc1 (stereo not shown) [Example B-0748]

- P38 alpha kinase % inhib @ conc. (uM): 70.0% @
SMILES: Cc1ccc(C(=O)NCCc2[nH]nc(-c3ccc(F)cc3)c2-c2ccncc2)cc1 [Example B-1002]

- pIC50 [1]: 6.01
SMILES: CCCOC(=O)NC(C)c1[nH]nc(-c2ccc(F)cc2)c1-c1ccncc1 (stereo not shown) [Example B-0602]

- pIC50 [2]: 7.89
SMILES: Cc1ccc(C(=O)NCCCc2[nH]nc(-c3ccc(F)cc3)c2-c2ccncc2)cc1 [Example B-1323]

- inhibition at 1 µM: 90%
SMILES: N#Cc1cccc(C(=O)NCc2[nH]nc(-c3ccc(F)cc3)c2-c2ccncc2)c1 [Example B-0023]

- pIC50 [2]: 6.03
SMILES: O=S(=O)(c1ccc(Br)cc1)N1CCC(c2[nH]nc(-c3ccc(F)cc3)c2-c2ccncc2)CC1 [Example B-1472]

— patent publication US6979686B1, “Substituted pyrazoles as p38 kinase inhibitors” (Pharmacia Corporation, priority 2001, dated 2005)
